Structures are written as SMILES. Bridge positions count the residues as written; N and C are the ends. Square brackets hold non-standard residues; d marks the D form. Peptide text beside a SMILES is read from it. * marks the point of attachment. ξ: configuration not given here. Phe(4-COOH) = N[C@@H](Cc1ccc(C(=O)O)cc1)C(=O)O; Bip = N[C@@H](Cc1ccc(-c2ccccc2)cc1)C(=O)O; Phe(3-Me) = Cc1cccc(C[C@H](N)C(=O)O)c1; 4Pal = N[C@@H](Cc1ccncc1)C(=O)O; Cha = N[C@@H](CC1CCCCC1)C(=O)O; Ile(3ξ) = CCC(C)[C@H](N)C(=O)O; Carboxymethyl = O=C(O)C*; NMeA = CN[C@@H](C)C(=O)O; Orn = NCCC[C@H](N)C(=O)O; Dab = NCC[C@H](N)C(=O)O; Dap = NC[C@H](N)C(=O)O; ξC = NC(CS)C(=O)O; Acm = CC(=O)NC*

The experiment deals with T1, PE-labeled human PD-L1-Ig binding to Jurkat cell line over-expressing human PD-1 (Jurkat-PD-1) (Homo sapiens, UniProt Q15116).
T1 construct: expressed in transfected cells; host or cells: Jurkat
T1 sequence (Q15116 25-288): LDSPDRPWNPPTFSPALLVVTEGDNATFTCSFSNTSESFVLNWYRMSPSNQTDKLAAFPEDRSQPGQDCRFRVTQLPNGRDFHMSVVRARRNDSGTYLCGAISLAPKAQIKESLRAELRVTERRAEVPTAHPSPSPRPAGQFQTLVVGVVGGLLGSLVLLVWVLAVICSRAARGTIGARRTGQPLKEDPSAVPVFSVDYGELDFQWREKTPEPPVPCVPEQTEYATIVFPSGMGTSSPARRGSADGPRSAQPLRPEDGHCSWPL
In words: Jurkat-PD-1 Cell Binding High-Content Screening Assay (CBA): Method 1. The settings on record: Jurkat-hPD-1 cells, PE-labeled PD-L1-Ig 20 nM final; read-out: Jurkat HPDL1 PD1 IC50 (uM) (Method 1).
As usually defined, the IC50 is the concentration needed to halve the response being measured. For `CC(=O)NCSC[C@@H]1NC(=O)[C@H](CC(C)C)NC(=O)[C@H](CC(N)=O)NC(=O)[C@@H](CC(C)C)NC(=O)[C@H](C)N(C)C(=O)[C@H](C(C)C)NC(=O)[C@H](Cc2ccc(-c3ccccc3)cc2)NC(=O)[C@H](CSCNC(C)=O)NC(=O)[C@H](Cc2cccc(C)c2)NC(=O)[C@H](CC(=O)O)NC(=O)[C@H](Cc2ccncc2)NC(=O)[C@H](Cc2ccc(OCC(=O)O)cc2)NC(=O)CSCC(C(=O)NCC(N)=O)NC(=O)[C@H](CO)NC1=O` (stereo partly drawn) [Compound 1887] ({CH2CO}-Y(Carboxymethyl)[4Pal]D[Phe(3-Me)]C(Acm)[Bip]V[NMeA][dL]NLC(Acm)S[ξC]G-NH2; thioether N-14), the IC50 is 0.25 µM. `CCC(C)[C@@H]1NC(=O)[C@H](Cc2ccc(-c3ccccc3)cc2)NC(=O)[C@H](CC(C)C)NC(=O)[C@H](Cc2c[nH]c3ccccc23)NC(=O)[C@H](CC(=O)O)NC(=O)[C@H](Cc2ccc(C(=O)O)cc2)NC(=O)[C@H](Cc2ccc(OCC(=O)O)cc2)NC(=O)CSC[C@@H](C(=O)N[C@@H](CO)C(N)=O)NC(=O)[C@H](CO)NC(=O)[C@H](C(C)C)NC(=O)[C@H](CC2CCCCC2)NC(=O)[C@H](CCN)NC(=O)[C@@H](CC(C)C)NC(=O)[C@H](C)N(C)C1=O` (stereo partly drawn) [Compound 1929] ({CH2CO}-Y(Carboxymethyl)[Phe(4-COOH)]DWL[Bip][Ile(3ξ)][NMeA][dL][Dab][Cha]VSCS-NH2; thioether N-14): the IC50 was determined as 0.02 µM. Turning to `CC[C@H](C)[C@@H]1NC(=O)[C@H](Cc2ccc(-c3ccccc3)cc2)NC(=O)[C@H](C(C)C)NC(=O)[C@H](Cc2cccc(C)c2)NC(=O)[C@H](CC(=O)O)NC(=O)[C@H](Cc2ccncc2)NC(=O)[C@H](CN)NC(=O)CSC[C@@H](C(=O)N[C@@H](C)C(N)=O)NC(=O)[C@H]([C@@H](C)O)NC(=O)[C@H](C(C)C)NC(=O)[C@H](CC(C)C)NC(=O)[C@H](CCN)NC(=O)[C@@H](CC(C)C)NC(=O)[C@H](C)N(C)C1=O` [Compound 1544] ({CH2CO}-[Dap][4Pal]D[Phe(3-Me)]V[Bip]I[NMeA][dL][Dab]LVTCA-NH2; thioether N-14), the IC50 came to 0.01 µM. On to `CC(C)C[C@@H]1NC(=O)[C@H](CCN)NC(=O)[C@@H](CC(C)C)NC(=O)[C@H](C)N(C)C(=O)[C@H](CCCNC(=N)N)NC(=O)[C@H](Cc2ccc(-c3ccccc3)cc2)NC(=O)[C@H](C(C)C)NC(=O)[C@H](Cc2c[nH]c3ccccc23)NC(=O)[C@H](CC(=O)O)NC(=O)[C@H](Cc2ccc(O)cc2)NC(=O)[C@H](Cc2ccccc2)NC(=O)CSC[C@@H](C(=O)N[C@@H](CCC(=O)O)C(N)=O)NC(=O)[C@H]([C@@H](C)O)NC(=O)[C@H](C(C)C)NC1=O` [Compound 1175] ({CH2CO}-FYDWV[Bip]R[NMeA][dL][Dab]LVTCE-NH2; thioether N-14), for which the IC50 was 0.12 µM. Consider `CC(C)C[C@@H]1NC(=O)[C@H](Cc2c[nH]c3ccccc23)NC(=O)[C@H](CC(=O)O)NC(=O)[C@H](Cc2ccc(O)cc2)NC(=O)[C@H](Cc2ccccc2)NC(=O)CSC[C@@H](C(=O)NCC(N)=O)NC(=O)[C@H](CO)NC(=O)[C@H](C(C)C)NC(=O)[C@H](CC(C)C)NC(=O)[C@H](CC(N)=O)NC(=O)CNC(=O)[C@H](C)N(C)C(=O)[C@H](C(C)C)NC(=O)[C@H](Cc2ccc(-c3ccccc3)cc2)NC1=O` [Compound 1757] ({CH2CO}-FYDWL[Bip]V[NMeA]GNLVSCG-NH2; thioether N-14), for which the IC50 is 0.03 µM.

As to `CC(C)C[C@@H]1NC(=O)[C@H](CCCN)NC(=O)[C@@H](CC(C)C)NC(=O)[C@H](C)N(C)C(=O)[C@H](CCCNC(=N)N)NC(=O)[C@H](Cc2ccc(-c3ccccc3)cc2)NC(=O)[C@H](C(C)C)NC(=O)[C@H](Cc2c[nH]c3ccccc23)NC(=O)[C@H](CC(=O)O)NC(=O)[C@H](Cc2ccc(C(=O)O)cc2)NC(=O)[C@H](CC(N)=O)NC(=O)CSC[C@@H](C(=O)N[C@@H](C)C(N)=O)NC(=O)[C@H]([C@@H](C)O)NC(=O)[C@H](C(C)C)NC1=O` [Compound 1139] ({CH2CO}-N[Phe(4-COOH)]DWV[Bip]R[NMeA][dL][Orn]LVTCA-NH2; thioether N-14), the IC50 is 0.06 µM.
